Results published in ChEMBL document CHEMBL5634121, “Discovery of novel G9a/GLP covalent inhibitors for the treatment of triple-negative breast cancer” (Eur J Med Chem, 2023).
Activity calls are given as the source filed them. The rule behind the calls is not given here.

Assays:
[1] = target: T1, Histone-lysine N-methyltransferase EHMT2 (Homo sapiens) (UniProt Q96KQ7); assay: Inhibition of G9a (unknown origin) at 1 uM by AlphaLISA immunodetection assay relative to control
T1 sequence (whole entry): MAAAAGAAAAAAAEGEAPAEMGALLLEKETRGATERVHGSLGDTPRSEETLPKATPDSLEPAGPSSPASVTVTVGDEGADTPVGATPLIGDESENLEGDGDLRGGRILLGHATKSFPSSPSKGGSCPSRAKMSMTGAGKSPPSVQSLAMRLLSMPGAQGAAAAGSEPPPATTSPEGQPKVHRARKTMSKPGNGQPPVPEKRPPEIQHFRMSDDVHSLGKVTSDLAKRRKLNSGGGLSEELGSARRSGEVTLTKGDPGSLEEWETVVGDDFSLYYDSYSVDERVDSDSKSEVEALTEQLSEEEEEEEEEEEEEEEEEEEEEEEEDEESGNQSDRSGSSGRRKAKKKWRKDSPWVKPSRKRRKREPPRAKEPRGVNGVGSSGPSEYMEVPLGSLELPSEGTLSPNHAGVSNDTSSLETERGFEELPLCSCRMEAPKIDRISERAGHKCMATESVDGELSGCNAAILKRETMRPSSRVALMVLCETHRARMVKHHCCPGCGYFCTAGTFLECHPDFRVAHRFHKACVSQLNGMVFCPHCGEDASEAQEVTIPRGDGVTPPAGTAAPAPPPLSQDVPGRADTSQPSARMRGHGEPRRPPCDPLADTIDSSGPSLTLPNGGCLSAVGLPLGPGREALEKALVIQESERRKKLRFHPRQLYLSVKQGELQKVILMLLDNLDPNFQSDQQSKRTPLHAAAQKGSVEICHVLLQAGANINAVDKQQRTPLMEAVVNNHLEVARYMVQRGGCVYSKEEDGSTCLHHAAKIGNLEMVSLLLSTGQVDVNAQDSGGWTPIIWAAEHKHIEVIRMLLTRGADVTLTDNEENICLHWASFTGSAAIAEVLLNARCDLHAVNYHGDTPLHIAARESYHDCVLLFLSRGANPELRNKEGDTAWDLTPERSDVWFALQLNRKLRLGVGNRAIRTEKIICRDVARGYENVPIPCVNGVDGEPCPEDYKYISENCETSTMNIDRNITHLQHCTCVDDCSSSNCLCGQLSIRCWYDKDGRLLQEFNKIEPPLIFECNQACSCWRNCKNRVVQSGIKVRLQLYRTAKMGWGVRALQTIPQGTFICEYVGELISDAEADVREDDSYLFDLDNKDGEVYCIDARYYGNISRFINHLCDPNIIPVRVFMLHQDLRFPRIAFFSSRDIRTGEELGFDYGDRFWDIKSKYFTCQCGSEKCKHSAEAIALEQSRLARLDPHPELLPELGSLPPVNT

4T1 = assay: Antiproliferative activity against mouse 4T1 cells incubated for 3 to 5 days by MTT assay; type: functional, cell-based; details: Mus musculus, 4T1; read-out: IC50
[2] = AUC(0 to infinity) in ICR mouse at 2 mg/kg, iv measured upto 12 hrs by LC-MS/MS analysis; type: ADME, organism-based; details: in vivo
[3] = AUC(0 to t) in ICR mouse at 2 mg/kg, iv measured upto 12 hrs by LC-MS/MS analysis; type: ADME, organism-based; details: in vivo
MDA-MB-231 [4] = assay: Antiproliferative activity against human MDA-MB-231 cells after 5 days by MTT assay; type: functional, cell-based; details: MDA-MB-231, 120 h
MDA-MB-231 [5] = assay: Induction of apoptosis in human MDA-MB-231 cells assessed as viable cells at 5 uM incubated for 72 hrs by Annexin V and PI staining based flow cytometry analysis (reference value: 98.31 %); type: functional; details: read-out: Activity
MDA-MB-231 [6] = assay: Induction of apoptosis in human MDA-MB-231 cells assessed as early apoptotic cells at 5 uM incubated for 72 hrs by Annexin V and PI staining based flow cytometry analysis (reference value: 0.92 %); type: functional
MDA-MB-231 [7] = assay: Induction of apoptosis in human MDA-MB-231 cells assessed as early apoptotic cells at 20 uM incubated for 72 hrs by Annexin V and PI staining based flow cytometry analysis (reference value: 0.92 %); type: functional
MDA-MB-231 [8] = assay: Induction of apoptosis in human MDA-MB-231 cells assessed as late apoptotic cells at 20 uM incubated for 72 hrs by Annexin V and PI staining based flow cytometry analysis (reference value: 0.45 %); type: functional
MDA-MB-231 [9] = assay: Induction of apoptosis in human MDA-MB-231 cells assessed as necrotic cells at 20 uM incubated for 72 hrs by Annexin V and PI staining based flow cytometry analysis (reference value: 0.32 %); type: functional
MDA-MB-231 [10] = assay: Induction of cell cycle arrest in human MDA-MB-231 cells assessed as accumulation of cells at G2/M phase incubated for 72 hrs by PI/RNase staining based flow cytometric analysis; type: functional; details: dose 5-20 µM
[11] = target: Histone-lysine N-methyltransferase EHMT1/EHMT2 (Homo sapiens) (UniProt Q9H9B1+Q96KQ7); assay: Inhibition of G9a/GLP in human MDA-MB-231 cells assessed as reduction in H3K9 dimethylation at 20 uM incubated for 1 day followed by compound washout and measured after 1 to 4 days; type: cell-based
[12] = Cytotoxicity against human L02 cells assessed as reduction in cell viability incubated for 2 days by MTT assay; type: toxicity, cell-based

Histone-lysine N-methyltransferase EHMT1/EHMT2 (Homo sapiens), sequence (Q9H9B1 whole entry, looked up, one chain of several): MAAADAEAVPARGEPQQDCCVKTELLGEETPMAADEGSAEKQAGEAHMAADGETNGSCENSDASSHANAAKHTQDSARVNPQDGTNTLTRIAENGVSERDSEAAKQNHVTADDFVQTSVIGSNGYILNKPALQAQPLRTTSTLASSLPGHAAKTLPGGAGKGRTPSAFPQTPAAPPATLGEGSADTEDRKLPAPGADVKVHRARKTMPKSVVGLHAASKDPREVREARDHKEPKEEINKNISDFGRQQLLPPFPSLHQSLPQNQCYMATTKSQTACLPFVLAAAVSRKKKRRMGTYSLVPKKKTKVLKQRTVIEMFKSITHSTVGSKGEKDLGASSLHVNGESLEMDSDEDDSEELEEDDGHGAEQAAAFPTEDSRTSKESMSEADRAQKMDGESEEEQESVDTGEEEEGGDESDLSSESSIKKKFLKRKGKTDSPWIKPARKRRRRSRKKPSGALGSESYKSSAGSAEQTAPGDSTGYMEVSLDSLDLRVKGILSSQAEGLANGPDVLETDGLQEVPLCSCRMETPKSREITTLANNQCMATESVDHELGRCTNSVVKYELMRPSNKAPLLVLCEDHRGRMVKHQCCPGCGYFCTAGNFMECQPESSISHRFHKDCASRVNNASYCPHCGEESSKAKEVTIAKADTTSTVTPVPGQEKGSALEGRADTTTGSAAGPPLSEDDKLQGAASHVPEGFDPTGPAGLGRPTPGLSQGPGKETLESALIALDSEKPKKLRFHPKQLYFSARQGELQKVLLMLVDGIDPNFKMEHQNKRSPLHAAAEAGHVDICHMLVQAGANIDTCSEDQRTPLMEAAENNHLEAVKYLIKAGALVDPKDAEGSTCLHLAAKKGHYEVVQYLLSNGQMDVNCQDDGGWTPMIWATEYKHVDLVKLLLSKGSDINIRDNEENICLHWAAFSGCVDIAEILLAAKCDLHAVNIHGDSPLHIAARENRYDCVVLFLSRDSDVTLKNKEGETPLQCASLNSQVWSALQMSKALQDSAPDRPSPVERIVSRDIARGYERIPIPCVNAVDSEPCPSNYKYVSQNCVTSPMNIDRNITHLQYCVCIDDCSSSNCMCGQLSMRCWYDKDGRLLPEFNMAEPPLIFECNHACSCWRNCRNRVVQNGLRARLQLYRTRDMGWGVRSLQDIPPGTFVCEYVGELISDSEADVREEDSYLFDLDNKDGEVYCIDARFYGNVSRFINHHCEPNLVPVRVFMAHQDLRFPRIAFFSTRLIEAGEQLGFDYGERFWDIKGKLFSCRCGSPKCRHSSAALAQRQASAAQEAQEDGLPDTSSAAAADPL

## C=CC(=O)Nc1cccc(-c2nc(NC3CCN(C)CC3)c3cc(OC)c(OC)cc3n2)c1
[1]
  inhibition: 96%
4T1
  IC50: 4.67 µM
[2]
  AUC(0-inf): 1690 ng·h/mL
[3]
  AUC(0-t) at 12 h: 1650 ng·h/mL
MDA-MB-231 [4]
  IC50: 0.598 µM
MDA-MB-231 [5]
  viability at 5 µM: 94.6%
MDA-MB-231 [6]
  Activity: 1.44%
MDA-MB-231 [7]
  Activity: 21.6%
MDA-MB-231 [8]
  Activity: 34.86%
MDA-MB-231 [9]
  Activity: 4.23%
MDA-MB-231 [10]
  Activity: Dose-Dependent Effect
[11]
  inhibition: Active
[12]
  IC50 at 2 days: 10.3 µM
